Test results reported in US10344034B2, “Pyrazolopyrimidone or Pyrrolotriazone derivatives, method of preparing same, and pharmaceutical applications thereof” (Shanghai Hengrui Pharmaceutical Co., Ltd., priority 2013, dated 2019).
Where two headings read alike, the source gives them in different places.

Columns and labels:
human GnRHr = human GnRHr (Homo sapiens (Human), UniProt P30968); test: Human GnRHr (GnRH receptor) activity assay, Fluo-4 calcium signal in Human GnRHr/CHO stably transfected cell lines; assay type: cell-based; conditions: Human GnRHr/CHO cells, GnRH polypeptide stimulant
human GnRHr, sequence (P30968 whole entry): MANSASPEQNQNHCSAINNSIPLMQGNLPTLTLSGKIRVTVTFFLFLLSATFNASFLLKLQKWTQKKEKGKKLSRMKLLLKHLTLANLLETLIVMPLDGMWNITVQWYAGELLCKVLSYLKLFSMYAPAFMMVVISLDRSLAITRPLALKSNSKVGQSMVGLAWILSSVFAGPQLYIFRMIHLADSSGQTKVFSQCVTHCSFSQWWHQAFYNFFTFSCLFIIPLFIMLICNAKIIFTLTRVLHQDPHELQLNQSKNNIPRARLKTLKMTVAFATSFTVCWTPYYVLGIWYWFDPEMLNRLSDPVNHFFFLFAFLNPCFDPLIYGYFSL
Protocol: Test Example 1. Human GnRHr (GnRH Receptor) Activity Assay of the Present Compounds.
In vitro GnRHr protein activity was tested by the following methods.
This assay was used to determine the inhibition effect of the present compound on the activity of human GnRHr protein expressed by Human GnRHr/CHO stably transfected cell lines.
A mammalian expression vector containing the human GnRHr gene was transferred into CHO cells by adding Lipofectamine® LTX reagent containing Plus™. Antibiotics were added the next day for screening to pick out the monoclonal cell lines.
The Human GnRHr/CHO stably transfected cell lines were inoculated in 96-well plates with an inoculation density of 25,000 cells/well. The culture medium was removed the next day, and loading buffer containing Fluo-4 dye was added to the plate (100 μL/well) and incubated for 30 minutes at 37° C. The plate was moved to room temperature and equilibrated for 10 minutes. Each compound was diluted with DMSO to seven concentration gradients of 100 μM, 10 μM, 1 μM, 0.1 μM, 0.01 μM, 0.001 μM, 0.0001 μM. Then, 1 μl of each gradient was added to each well and incubated for 10 minutes at room temperature. After automated addition of 50 μL of GnRH polypeptide stimulant solution, the value was immediately detected at 494/516 […] by a microplate reader (flexstation 3). IC50 values of the compounds were calculated by software from different fluorescence signals at various corresponding concentrations.
The inhibitory activity of the present compounds on human GnRHr was determined by the above assay, and IC50 values are shown in Table 1.

[1] = Seven-day toxicokinetic evaluation in rats; design: species or system SD rats; conditions: rat, in vivo; for AUC(0-inf): AUC0-∞; for MRT inf: MRT0-∞
Protocol: Test Example 8. Seven-Day Toxicokinetic Evaluation of the Compound of Example 11 in Rats
SD rats were used as test animals. The plasma concentration at various times was determined by LC/MS/MS after administration of the compound of Example 11 (SHR147280) by oral gavage for 7 days. The compound toxicity in rodents was preliminarily assessed according to the potential toxicity reaction and severity level of the body.
Twenty-four (24) healthy adult SD rats (half female and half male) were evenly designated into 4 groups (6 for each group). The animals were purchased from Shanghai SLAC Laboratory Animal Corp. Ltd (laboratory animal production Certificate No. SCXK (HU) 2012-0002).
An appropriate amount of sample was accurately weighed, and added with some 0.5% CMC-Na to form an uniform suspension upon ultrasonicator grinding treatment, and then diluted to the final volume. The test sample solutions on day 1 and day 7 were kept for the determination of administration concentration of toxicokinetics.
Repeat oral doses were 80, 240, and 720 mg/kg, and administration concentrations were 8, 24, and 72 mg/ml respectively. The dosing volume was 10 ml/kg once daily for 7 days.
The blood was sampled on day 1 and day 7 after administration with sampling time before, and 1, 2, 4, 8 and 24 hours after oral administration on day 1, as well as before, and 1, 2, 4, 8, 24 and 48 hours after oral administration on day 7. The blood sample was collected in a heparinized test tube, and centrifuged to separate the plasma, which was stored at −20° C. The content of the test compound in the plasma of rats after administration of the compound by oral gavage was determined by LC/MS/MS.

[2] = Rabbit pharmacokinetics assay; assay type: in vivo, New Zealand rabbits; conditions: for AUC: read-out: Area under curve AUC; for half-life: read-out: Half-life T1/2 (converted); for MRT: read-out: Residence time MRT
Protocol: Test Example 5. Rabbit Pharmacokinetics Assay of Example 11 of the Present Invention
Rabbits were used as test animals. The plasma concentrations at various times were determined by LC/MS/MS after intragastric administration of the compound of Example 11, and intravenous administration of the compound of Example 11 to rabbits. The pharmacokinetic behavior of the present compound in rabbits was studied, and the pharmacokinetic features were evaluated.
Six (6) healthy New Zealand Rabbits (female) were evenly designated into 2 groups. The animals were purchased from Jie Sijie Corp. Ltd.
An appropriate amount of sample was weighed, and added with 0.5% CMC-Na to form […] suspension upon ultrasonic treatment.
Appropriate amounts of drugs were weighed, and dissolved with 1 ml DMSO and 1 ml of Tween 80. Saline solution was added to the final volume.
Six (6) healthy New Zealand rabbits (female) were evenly designated into 2 groups, and administered by oral gavage or intravenous injection (i.v.) (oral gavage at a dosage of 30 mg/kg with an administration volume of 5 ml/kg, and i.v. at a dosage of 5 mg/kg with an administration volume of 2 ml/kg) after fasting overnight.
0.2 ml of blood was sampled before and 5 minutes, 0.25, 0.5, 1, 2, 4, 8, 11, 24 hours after intravenous administration, collected in a heparinized test tube, and centrifuged at 3500 rpm for 10 minutes to separate the plasma, which was stored at −20° C. Blood was sampled before, and 0.5, 1, 2, 4, 6, 8, 11, and 24 hours after oral administration, and treated the same as that of the intravenous administration group. The content of the test compound in the plasma of rabbits after administration of the compound by oral gavage and intravenous injection was determined by LC/MS/MS.

[3] = female, New Zealand, plasma, intravenous injection 5 mg/kg
[4] = female, New Zealand, plasma, oral 30 mg/kg

Question: What does the source list for `CONC(=O)Nc1ccc(-n2nc3c(c2CN(C)C)c(=O)n(-c2ccc(OC)nn2)c(=O)n3Cc2c(F)cccc2F)cc1` [Example 11, 1-(4-(7-(2,6-difluorobenzyl)-3-((dimethylamino)methyl)-5-(6-methoxypyridazin-3-yl)-4,6-dioxo-4,5,6,7-tetrahydro-2H-pyrazolo[3,4-d]pyrimidin-2-yl)phenyl)-3-methoxyurea]?
Answer: IC50 (human GnRHr): 4.95 nM; NOAEL at 7 days ([1]; both sexes, SD, po): 240 mg/kg; lethal dose ([1]; both, SD, po, 7 days): 720 mg/kg; CLz/F ([1]; female, SD, 80 mg/kg): 7.71 mL/min/kg; CLz/F ([1]; female, SD, 240 mg/kg): 5.82 mL/min/kg; AUC0-t ([1]; female, SD, po, 80 mg/kg): 282.074 µg·h/mL; AUC0-∞ ([1]; female, SD, po, 80 mg/kg): 313.468 µg·h/mL; Cmax ([1]; female, SD, po, 80 mg/kg): 19550 ng/mL; MRT0-∞ ([1]; female, SD, po, 80 mg/kg): 9.23 h; Vd/F ([1]; female, SD, po, 80 mg/kg): 2.09 L/kg; AUC0-t ([1]; female, SD, po, 80 mg/kg, AUC0-t): 173 µg·h/mL; AUC(0-inf) ([1]; female, SD, po, 80 mg/kg): 174 µg·h/mL; Cmax ([1]; female, SD, po, 80 mg/kg, Cmax): 17800 ng/mL; MRT inf ([1]; female, SD, po, 80 mg/kg): 5.82 h; AUC0-t ([1]; female, SD, po, 240 mg/kg): 790.873 µg·h/mL; AUC0-∞ ([1]; female, SD, po, 240 mg/kg): 840.45 µg·h/mL; Cmax ([1]; female, SD, po, 240 mg/kg): 51150 ng/mL; MRT0-∞ ([1]; female, SD, po, 240 mg/kg): 7.97 h; Vd/F ([1]; female, SD, po, 240 mg/kg): 2.87 L/kg; t1/2 ([1]; female, SD, po, 240 mg/kg): 4.26 h; tmax ([1]; female, SD, po, 240 mg/kg): 6.0 h; AUC0-t ([1]; female, SD, po, 240 mg/kg, AUC0-t): 639 µg·h/mL; AUC(0-inf) ([1]; female, SD, po, 240 mg/kg): 690 µg·h/mL; Cmax ([1]; female, SD, po, 240 mg/kg, Cmax): 41500 ng/mL; MRT inf ([1]; female, SD, po, 240 mg/kg): 9.63 h; half-life ([1]; female, SD, po, 240 mg/kg, t1/2): 5.73 h; tmax ([1]; female, SD, po, 240 mg/kg, tmax): 8 h; AUC0-t ([1]; female, SD, po, 720 mg/kg): 2838.65 µg·h/mL; Cmax ([1]; female, SD, po, 720 mg/kg): 138000 ng/mL; tmax ([1]; female, SD, po, 720 mg/kg): 24.0 h; AUC0-t ([1]; female, SD, po, 720 mg/kg, AUC0-t): 1550 µg·h/mL; Cmax ([1]; female, SD, po, 720 mg/kg, Cmax): 69300 ng/mL; tmax ([1]; female, SD, po, 720 mg/kg, tmax): 16 h; potential toxic target organs ([1]; po): marrow hematopoietic system, thymus, heart, liver, lung, spleen, adrenal gland, ovary, and digestion system; AUC [2, 3]: 3.41 ± 0.832 µg·h/mL; half-life [2, 3]: 4.6 ± 2.7 h; MRT [2, 3]: 2.39 ± 0.3 h; Vd/F ([2]; female, New Zealand, plasma, oral 30 mg/kg, read-out: Apparent volume of distribution Vz/F): 10.7 ± 3.86 L/kg; AUC [2, 4]: 19 ± 2.31 µg·h/mL; CL/F ([2]; female, New Zealand, plasma, oral 30 mg/kg, read-out: Clearance rate CL/F): 26.6 ± 3.4 mL/min/kg; half-life [2, 4]: 4.57 ± 1.06 h; Cmax ([2]; female, New Zealand, plasma, oral 30 mg/kg, read-out: Plasma concentration Cmax): 5040 ± 776 ng/mL; MRT [2, 4]: 3.94 ± 0.55 h; Apparent volume of distribution Vz/F ([2]; intravenous injection 5 mg/kg): 10.948 ± 7.749 L/kg; Clearance rate CL/F ([2]; intravenous injection 5 mg/kg): 25.3 ± 5.5 mL/min/kg
